Where a name gives a salt, the structure may show the parent alone.
Columns and labels:
Type in all cases: cell-based, mouse
MOR142-1 = experiment: High-throughput multiplexed odorant screening (Smell-seq), barcode RNA-seq readout; conditions: OR MOR142-1; pair called as hit, FDR=1%
Source text: (§1) We subsequently screened 182 odorants at three concentrations in triplicate against the OR cell library, the equivalent of ˜85,000 individual luciferase assays including controls (FIG. 10A, Table 2). Each 96-well plate in the assay contained positive control odorants and solvent DMSO wells for normalization (FIG. 16). We used the EdgeR software package to determine differentially responsive ORs based on a negative binomial model of barcode counts. We found 114 OR-odorant interactions (out of 7,200 possible), 81 of which are novel, and 24 interactions with 15 orphan receptors (FIG. 10C, FIG. 17 and Supplementary Table 4) (FDR=1%; Benjamini-Hochberg correction). Overall 28 of 39 receptors were activated by at least one odorant, and 68 of 182 odorants activated at least one OR (Table 4). We chose 37 interactions of at least 1.2 fold induction to test individually with a previously developed transient OR assay that has several important differences (FIG. 18). Of the 28 interactions called as hits at an FDR of 1%, 21 of them replicated in this orthogonal system (FIG. 17). […] Conversely, we also detect 14 interactions that this previous study tested, but called negative.

MOR133-1 = experiment: as above; conditions: OR MOR133-1; pair called as hit, FDR=1%
Source text: as §1

MOR112-1 = experiment: as above; conditions: OR MOR112-1; pair called as hit, FDR=1%
Source text: as §1

MOR131-1 = experiment: as above; conditions: OR MOR131-1; pair called as hit, FDR=1%
Source text: as §1

MOR9-1 = experiment: as above; conditions: OR MOR9-1; pair called as hit, FDR=1%
Source text: as §1

Olfr62 = experiment: as above; conditions: OR Olfr62; pair called as hit, FDR=1%
Source text: as §1

MOR13-1 = experiment: High-throughput multiplexed odorant screening (Smell-seq), 96-well, barcode RNA-seq readout; conditions: OR MOR13-1; pair called as hit, FDR=1%
Source text: We find that chemicals with similar features activate similar sets of ORs, including those receptors we deorphanize in this study. For example, the previously orphan MOR13-1 is activated by four chemicals with polar groups attached, in three cases, to stiff non-rotatable scaffolds. Another example is, MOR19-1, which has clear affinity for the salicylate functional group. To better understand how chemical similarity relates to receptor activation without relying on incomplete and sometimes arbitrary chemical descriptors, we used a previously validated computational autoencoder to represent each chemical in a ˜292 dimensional latent space, allowing nearly lossless compression of chemical structure (Data not shown). We find chemicals that activate the same OR tend to cluster distinctly (FIG. 10D, FIG. 20). […] Many, but not all of the receptors. […] Understanding the space of chemicals that activates each OR establishes the groundwork for prediction of novel odorant-OR interactions.
(§2) 10. High-Throughput Odorant Screening
(§3) The OR library cell line was thawed from a liquid nitrogen frozen stock into a T-225 flask (Corning) three days before seeding into a 96-well plate for screening. The library was seeded at 6,666 cells per well in 100 ul of DMEM. 24 hours later a working concentration of 1 ug/ml of doxycycline in DMEM was added to the wells. 24 hours after induction, the media was removed from each plate and replaced with 25 ul of odorant diluted in OptiMEM. Each odor was added at three different concentrations (10 uM, 100 uM, 1 mM) in triplicate with the same amount of final DMSO (1%). Each plate contained two control odorants at a three concentration (10 uM, 100 uM, 1 mM) in triplicate and three wells containing 1% DMSO dissolved in media. The library was incubated with odorants for three hours in a cell culture incubator with the lids removed.
After odor incubation, media was pipetted out of the plates and cells were lysed by adding 25 uL of ice-cold Cells-to-cDNA II Lysis Buffer (Thermo Fisher) and pipetting up and down to homogenize and lyse cells. The lysate was then heated to 75° C. for 15 minutes and flash frozen with liquid nitrogen and kept at −80 C until further processing. Then 0.5 uL DNase I (New England Biolabs) was added to lysate, and incubated at 37° C. for 15 minutes. […]
For each batch, qPCR was performed on a few wells (OL005F and OL013) with SYBR FAST qPCR Mastermix to determine the number of cycles necessary for PCR based library preparation. […] Library concentrations were quantified using a Tape Station 2200 and a Qubit (Thermo Fisher). The libraries were sequenced with two index reads and a single end 75-bp read on a NextSeq 500 in high-output mode (Illumina). […]

MOR203-1 = experiment: High-throughput multiplexed odorant screening (Smell-seq), barcode RNA-seq readout; conditions: OR MOR203-1; pair called as hit, FDR=1%
Source text: as §1

MOR139-1 = experiment: as above; conditions: OR MOR139-1; pair called as hit, FDR=1%
Source text: as §1

MOR170-1 = experiment: High-throughput multiplexed odorant screening (Smell-seq), 96-well, barcode RNA-seq readout; conditions: OR MOR170-1; pair called as hit, FDR=1%
Method: as §2, §3
(§4) After odor incubation, media was pipetted out of the plates and cells were lysed by adding 25 uL of ice-cold Cells-to-cDNA II Lysis Buffer (Thermo Fisher) and pipetting up and down to homogenize and lyse cells. The lysate was then heated to 75° C. for 15 minutes and flash frozen with liquid nitrogen and kept at −80 C until further processing. Then 0.5 uL DNase I (New England Biolabs) was added to lysate, and incubated at 37° C. for 15 minutes. To anneal the RT primer, 5 ul of lysate from each well was combined with 2.5 ul of 10 mM dNTPs (New England Biosciences), 1 ul of 2 uM gene specific RT primer (OL003), and 1.5 ul of H2O. The reaction was heated to 65° C. for 5 min and cooled back down to 0° C. After annealing, 1 ul of M-MuLV Reverse Transcriptase (Enzymatics), 1 ul of buffer, and 0.25 ul of RNase Inhibitor (Enzymatics) were added to each reaction. Reactions were incubated at 42° C. for 60 min and the RT enzyme was heat inactivated at 85° C. for 10 min.
(§5) For each batch, qPCR was performed on a few wells (OL005F and OL013) with SYBR FAST qPCR Mastermix to determine the number of cycles necessary for PCR based library preparation. The reaction and cycling conditions are optimized as follows: 95° C. for 3 minutes, 40 cycles of 95° C. for 3 seconds and 60° C. for 20 seconds. After qPCR, 5 ul of each RT reaction was combined with 0.4 ul of 10 uM primers containing sequencing adaptors (OL005F and OL013), 10 ul of NEB-Next Q5 Mastermix (New England Biosciences) and 4.2 ul H2O, the PCR was carried out according to the manufacturer's protocol. The forward primer contains the P7 adaptor sequence and an index identifying the well in the assay and the reverse primer contains the P5 adaptor sequence and an index identifying the plate in the assay. PCR products were pooled together by plate and purified with the DNA Clean and Concentrator Kit. Library concentrations were quantified using a Tape Station 2200 and a Qubit (Thermo Fisher). The libraries were sequenced with two index reads and a single end 75-bp read on a NextSeq 500 in high-output mode (Illumina).
(§6) 11. Analysis of Next-Generation Sequencing Data
(§7) Samples were identified via indexing by their PCR indexes adapters unique for each well (5′ end) and unique for each plate (3′ end). The well barcodes followed the 7 bp indexing scheme in (Illumina Sequencing Library Preparation for Highly Multiplexed Target Capture and Sequencing Matthias Meyer, Martin Kircher, Cold Spring Harb Protoc; 2010; doi:10.1101/pdb.prot5448). The plate indexing scheme followed the Illumina indexing scheme. Sequencing data was demultiplexed and 15 bp barcode sequences were counted with only exact matches by custom python and bash scripts.
(§8) 12. Statistical Methods for Calling Hits
(§9) Count data was then analyzed using the differential expression package EdgeR. To filter out ORs with low representation, we set a cutoff that an OR had to contain at least 0.5% of the reads from more than 399 of the 1954 test samples. This filtered out 3 of 42 ORs which were underrepresented in the cell library (MOR172-1, MOR176-1 and MOR181-1). […]

MOR120-1 = experiment: High-throughput multiplexed odorant screening (Smell-seq), barcode RNA-seq readout; conditions: OR MOR120-1; pair called as hit, FDR=1%
Source text: as §1

MOR4-1 = experiment: as above; conditions: OR MOR4-1; pair called as hit, FDR=1%
Source text: as §1

MOR158-1 = experiment: as above; conditions: OR MOR158-1; pair called as hit, FDR=1%
Source text: as §1

MOR19-1 [1] = experiment: High-throughput multiplexed odorant screening (Smell-seq), 96-well, barcode RNA-seq readout; conditions: for OR-odorant interaction called as hit in the multiplexed screen: MOR19-1, odorant at 10 uM, 100 uM, 1 mM in triplicate, 3 hours, FDR=1% (Benjamini-Hochberg); for Minimum Activating Concentration: OR MOR 19-1, pair called as hit, FDR=1%
Source text: as §1, §2, §3
as §4, with “After annealing, 1 ul of M-MuLV Reverse Transcriptase (Enzymatics), 1 ul of buffer, and 0.25 ul of RNase Inhibitor (Enzymatics) were added to each reaction. Reactions were incubated at 42° C. for 60 min and the RT enzyme was heat inactivated at 85° C. for 10 min.” left out

MOR19-1 [2] = experiment: Odorant-receptor activation luciferase assay (transient), orthogonal follow-up; conditions: interactions called as hits at an FDR of 1% tested individually
Source text: We subsequently screened 182 odorants at three concentrations in triplicate against the OR cell library, the equivalent of ˜85,000 individual luciferase assays including controls (FIG. 10A, Table 2). Each 96-well plate in the assay contained positive control odorants and solvent DMSO wells for normalization (FIG. 16). We used the EdgeR software package to determine differentially responsive ORs based on a negative binomial model of barcode counts. We found 114 OR-odorant interactions (out of 7,200 possible), 81 of which are novel, and 24 interactions with 15 orphan receptors (FIG. 10C, FIG. 17 and Supplementary Table 4) (FDR=1%; Benjamini-Hochberg correction). Overall 28 of 39 receptors were activated by at least one odorant, and 68 of 182 odorants activated at least one OR (Table 4). We chose 37 interactions of at least 1.2 fold induction to test individually with a previously developed transient OR assay that has several important differences (FIG. 18). […]
The Dual-Glo Luciferase Assay System (Promega) was used to measure OR-odorant responses as previously described (Zhuang and Matsunami 2008). […] Luminescence was measured using the M1000 plate reader (Tecan). All luminescence values were normalized to Renilla luciferase activity to control for transfection efficiency in a given well. Data were analyzed with Microsoft Excel and R.

MOR23-1 = experiment: High-throughput multiplexed odorant screening (Smell-seq), barcode RNA-seq readout; conditions: OR MOR23-1; pair called as hit, FDR=1%
Source text: as §1

MOR5-1 = experiment: High-throughput multiplexed odorant screening (Smell-seq), 96-well, barcode RNA-seq readout; conditions: OR MOR5-1; pair called as hit, FDR=1%
Method: as §2, §3, §4, §5, §6, §7, §8, §9

MOR165-1 = experiment: High-throughput multiplexed odorant screening (Smell-seq), barcode RNA-seq readout; conditions: OR MOR165-1; pair called as hit, FDR=1%
Source text: as §1

MOR119-1 = experiment: as above; conditions: OR MOR119-1; pair called as hit, FDR=1%
Source text: as §1

Cc1occc1SSc1ccoc1C [Bis(2-methyl-3-furyl)disulphide)]
Minimum Activating Concentration (MOR142-1): 1000 µM

CCCCCC(=O)CC [3-Octanone]
Minimum Activating Concentration (MOR133-1): 1000 µM

CC1COCc2cc3c(cc21)C(C)(C)C(C)C3(C)C (stereo not shown) [galaxolide]
Minimum Activating Concentration (MOR112-1): 100 µM
Minimum Activating Concentration (MOR131-1): 1000 µM
Minimum Activating Concentration (MOR9-1): 1000 µM

O=Cc1ccccc1 [Benzaldehyde]
Minimum Activating Concentration (Olfr62): 1000 µM
Minimum Activating Concentration (MOR112-1): 1000 µM
Minimum Activating Concentration (MOR13-1): 1000 µM

CC(C=O)Cc1ccc2c(c1)OCO2 (stereo not shown) [helional]
Minimum Activating Concentration (MOR203-1): 1000 µM
Minimum Activating Concentration (MOR139-1): 1000 µM
Minimum Activating Concentration (MOR170-1): 1000 µM

CC(C)(O)CCCC1=CCC(C=O)CC1 (stereo not shown) [Lyral]
Minimum Activating Concentration (MOR120-1): 1000 µM

CCCCC(=O)O [Pentanoic Acid]
Minimum Activating Concentration (MOR4-1): 1000 µM
Minimum Activating Concentration (MOR13-1): 1000 µM

CC(=O)C1(C)CC2=C(CCCC2(C)C)CC1C (stereo not shown) [Iso E Super]
Minimum Activating Concentration (MOR158-1): 1000 µM

COC(=O)c1ccccc1O [methyl salicylate]
OR-odorant interaction called as hit in the multiplexed screen (MOR19-1 [1]): hits
Minimum Activating Concentration (MOR19-1 [1]): 1000 µM
replication of the hit in the orthogonal transient OR luciferase assay (MOR19-1 [2]): did not replicate

CCCCCC(=O)O [Hexanoic Acid]
Minimum Activating Concentration (MOR4-1): 1000 µM
Minimum Activating Concentration (MOR23-1): 1000 µM
Minimum Activating Concentration (MOR5-1): 1000 µM

CC(=O)OCc1ccc2c(c1)OCO2 [Piperonyl acetate]
Minimum Activating Concentration (MOR203-1): 1000 µM
Minimum Activating Concentration (MOR170-1): 1000 µM

CCCCCCCCCS [Nonanethiol]
Minimum Activating Concentration (MOR120-1): 1000 µM

CCCCCCCCOC=O [Octyl formate]
Minimum Activating Concentration (MOR165-1): 1000 µM

CSSCc1ccco1 [Furfuryl methyl disulfide]
Minimum Activating Concentration (MOR119-1): 1000 µM

decanedioic acid (sebacic acid)
Minimum Activating Concentration (MOR165-1): 1000 µM

O=C(OCc1ccccc1)c1ccccc1O [benzyl salicylate]
OR-odorant interaction called as hit in the multiplexed screen (MOR19-1 [1]): hits
Minimum Activating Concentration (MOR19-1 [1]): 10 µM
replication of the hit in the orthogonal transient OR luciferase assay (MOR19-1 [2]): did not replicate

CCCCCCCCCCOC(C)=O [n-Decyl acetate]
Minimum Activating Concentration (MOR119-1): 100 µM

Source: patent US20200255844A1, “MULTIPLEXED RECEPTOR-LIGAND INTERACTION SCREENS” (THE REGENTS OF THE UNIVERSITY OF CALIFORNIA, priority 2017, published 2020)
